Our source for the Activity values is ChEMBL document CHEMBL2074339, “The use of a dendrimer-propranolol prodrug to bypass efflux transporters and enhance oral bioavailability” (J Control Release, 2004).

The target in series [1] is T1, ATP-dependent translocase ABCB1 (Homo sapiens, UniProt P08183). As to the kind of experiment: TP_TRANSPORTER: transepithelial transport in Caco2 cells. In kind it is functional, cell-based. Conditions: caco-2. For orientation: Passage across Caco-2 layers is used to estimate intestinal permeability.
T1 sequence (P08183 whole entry): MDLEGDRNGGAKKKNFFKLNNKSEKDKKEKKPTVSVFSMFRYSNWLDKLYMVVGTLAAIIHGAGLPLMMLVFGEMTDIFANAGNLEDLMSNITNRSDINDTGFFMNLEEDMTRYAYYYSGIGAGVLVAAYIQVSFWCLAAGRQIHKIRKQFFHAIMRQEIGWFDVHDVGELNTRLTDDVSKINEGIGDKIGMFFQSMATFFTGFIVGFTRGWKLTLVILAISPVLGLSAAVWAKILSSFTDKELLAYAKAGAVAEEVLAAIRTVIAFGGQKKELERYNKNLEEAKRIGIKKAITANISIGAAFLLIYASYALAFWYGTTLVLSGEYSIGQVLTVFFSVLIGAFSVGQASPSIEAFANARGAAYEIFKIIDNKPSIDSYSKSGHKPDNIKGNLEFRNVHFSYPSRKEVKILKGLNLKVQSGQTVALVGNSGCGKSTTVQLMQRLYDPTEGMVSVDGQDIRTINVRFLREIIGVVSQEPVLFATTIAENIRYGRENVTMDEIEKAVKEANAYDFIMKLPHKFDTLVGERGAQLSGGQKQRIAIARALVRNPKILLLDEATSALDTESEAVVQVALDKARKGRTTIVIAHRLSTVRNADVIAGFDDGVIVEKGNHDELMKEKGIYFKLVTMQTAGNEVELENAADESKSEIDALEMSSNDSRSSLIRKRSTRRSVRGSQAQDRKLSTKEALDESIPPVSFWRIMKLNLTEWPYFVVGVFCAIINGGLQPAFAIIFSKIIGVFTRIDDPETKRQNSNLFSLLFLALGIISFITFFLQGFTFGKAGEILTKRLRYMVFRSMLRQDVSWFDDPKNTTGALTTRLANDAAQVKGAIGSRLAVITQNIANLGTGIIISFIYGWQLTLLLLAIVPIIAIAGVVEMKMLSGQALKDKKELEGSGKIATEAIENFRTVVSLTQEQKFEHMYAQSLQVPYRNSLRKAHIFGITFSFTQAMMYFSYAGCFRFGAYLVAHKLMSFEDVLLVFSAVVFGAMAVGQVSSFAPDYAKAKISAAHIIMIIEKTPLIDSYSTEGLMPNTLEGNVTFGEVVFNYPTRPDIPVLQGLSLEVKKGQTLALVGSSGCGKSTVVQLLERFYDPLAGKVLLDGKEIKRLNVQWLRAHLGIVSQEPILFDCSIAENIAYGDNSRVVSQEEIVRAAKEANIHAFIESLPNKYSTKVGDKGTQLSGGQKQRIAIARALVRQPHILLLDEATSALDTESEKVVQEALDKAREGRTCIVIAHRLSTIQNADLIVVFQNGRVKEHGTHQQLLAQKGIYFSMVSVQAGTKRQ
For series [2], the target named is T1, ATP-dependent translocase ABCB1. As to the kind of experiment: TP_TRANSPORTER: transepithelial transport of propranolol in Caco2 cells. In kind it is functional, cell-based. Conditions: caco-2.

`CC(C)NCC(O)COc1cccc2ccccc12` (configuration not stated) [PROPRANOLOL]: the Activity entry in series [1] is “substrate [+]”.
Turning to G3 PAMAM DENDRIMER, the Activity entry in series [2] is “is not an inhibitor [-]”.
